Assay: Dynamic vapor sorption (DVS) analysis
Format: physicochemical
Settings: over 2 cycles tested; consistent with loss of AcOH upon dehumidification, confirmed by 1H NMR after DVS
Method: XRPD analysis confirmed that Form C9 is crystalline. […] (FIG. 10c). Decomposition occurs at about 220° C., as indicated by the large weight loss observed by TGA around this temperature. […] This was confirmed by ^1H NMR spectroscopy after DVS analysis. KF titration of Form C9 indicated the presence of about 2.3% water.
A hot solution of cabazitaxel (0.1 g) in 1 mL of AcOH and 0.5 mL of H2O was slowly cooled to room temperature. The mixture was filtered and the resulting solids were dried in a vacuum oven to give cabazitaxel Form C9 as a white solid (melting point: 152.5-159.3° C.). […] This was consistent with a loss of AcOH upon dehumification, which was confirmed by ^1H NMR spectroscopic analysis after the DVS test.

With CO[C@H]1C(=O)[C@]2(C)[C@@H](OC)C[C@H]3OC[C@@]3(OC(C)=O)[C@H]2[C@H](OC(=O)c2ccccc2)[C@]2(O)C[C@H](OC(=O)[C@H](O)[C@@H](NC(=O)OC(C)(C)C)c3ccccc3)C(C)=C1C2(C)C [Form C9, cabazitaxel] the “weight loss and gain upon changing humidity (DVS)” value was “non-perfectly reversible weight loss and gain upon changing humidity”.
